Measurements reported in patent US20170058288A1, “OSNF-YA7 GENE FOR INCREASING DROUGHT STRESS RESISTANCE OF PLANT AND USE THEREOF” (SNU R&DB FOUNDATION, priority 2014, published 2017).

Key:
OsNF-YA7 = OsNF-YA7 gene expression in response to ABA treatment (qRT-PCR); type: in vivo, rice (Oryza sativa); settings: short-term treatment (24 hours) with 10 and 100 μM ABA, NT rice plant, compared to untreated control group
Method: (§1) To analyze expression patterns of OsNF-YA4 and OsNF-YA7 gene in response to abiotic stress, non-transgenic rice plants (NT plants; breed—“Nakdong”) were grown in soil for 4 week in green house. The whole plant of a 4-week old non-transgenic plant was air-dried for 3 hrs for drought stress treatment. For the treatment of salt stress, whole plants were transferred to a solution containing 200 mM of NaCl and kept for 24 hours. For the treatment of low temperature stress, whole plants were transferred to a 4° C. low temperature chamber and kept for 24 hrs. For the analysis of OsNF-YA4 and OsNF-YA7 gene expression pattern in response to ABA, NT plant were grown in MS media for 2 week in growth chamber. For the short-term treatment with ABA, the whole plants were transferred to a solution containing 10 or 100 μM ABA and treated with the solution for 24 hours. For the long-term treatment with ABA, NT plant seeds were planted and grown on MS media supplemented with 0, 0.5, 1 or 3 μM of ABA for 2 weeks.
(§2) Leaf and root tissues of a plant which has been treated with either abiotic stress or absicic acid were collected and frozen. […] To analyze the gene expression level, quantitative PCR was carried out by using Mx3000p real-time PCR machine and Platinum® SYBR® Green qPCR SuperMix-UDG system (Invitrogen, USA). […]

OsNF-YA4 = OsNF-YA4 gene expression in response to ABA treatment (qRT-PCR); type: in vivo, rice (Oryza sativa); settings: short-term treatment (24 hours) with 10 and 100 μM ABA, NT rice plant, compared to untreated control group
Method: as §1, §2

CC1=CC(=O)CC(C)(C)[C@@]1(O)/C=C/C(C)=C\C(=O)O [ABA, Abscisic acid] was tested, and the “decrease in OsNF-YA7 expression level” value (OsNF-YA7) was “approximately 30%” and the “increase in OsNF-YA4 expression level” value (OsNF-YA4) was 4 fold.
